Test results from US20260053811A1, “METHODS OF TREATING HYPERTENSION IN OBESE SUBJECTS” (Mineralys Therapeutics, Inc., priority 2022, published 2026).

Tested on: hypertensive subjects
Assay: Seated automated office blood pressure (AOBP) in randomized, placebo-controlled, dose-ranging study
Assay type: in vivo, human
Settings: Part 1, 50 mg QD
Method: A randomized, double-blinded, placebo-controlled, dose-ranging, multicenter study was conducted to evaluate the effect of orally administered Compound A HBr on blood pressure for the treatment of hypertension in male and female subjects ≥18 years of age.
The study consists of two parts. For enrollment into Part 1 of the study, a subject's value of plasma renin activity (PRA) must be ≤1 ng/mL/h based on morning measurement. If the value of PRA >1 ng/mL/h based on morning measurement, then subjects may be eligible to enter Part 2 of the study.
For Part 1, 163 enrolled subjects ≥18 years of age were randomized into 6 equal treatment groups (1:1:1:1:1:1) to 12.5 mg BID, 25 mg BID, 12.5 mg QD, 50 mg QD, 100 mg QD, or placebo. After a review of interim clinical data, the 2 lowest dose levels (12.5 mg QD and 12.5 mg BID) were stopped for future randomization due to a lack of consistent meaningful reduction of blood pressure, but the patients randomized to that point remained in the study through completion. Thus, after the review of interim clinical data, subjects were randomized into 4 equal treatment groups (1:1:1:1) to 25 mg BID, 50 mg QD, 100 mg QD, or placebo.
For Part 2, 36 enrolled subjects ≥18 years of age were randomized (5:1) to either 100 mg QD Compound A HBr or placebo such that the Compound A HBr treatment group consisted of approximately 30 subjects and the placebo treatment group will consist of approximately 6 subjects.
Subjects orally administered the assigned study drug (Compound A HBr or placebo) according to the assigned dosing regimen for 8 weeks beginning on Study Day 1. All subjects in Part 1 (regardless of dosing group) received BID dosing to preserve the integrity of the blind; active drug is administered as the morning dose for all QD dose groups. Subjects returned to the research facility or were seen by the clinical investigator or approved home health care professional at the end of Study Weeks 1, 2, 3, 4, 5, 6, 7, and 8 (±2 days) for protocol-defined efficacy and safety assessments and procedures, assessment of adverse events (AEs), and confirmation of compliance with study drug usage. Subjects also completed a telephone visit and blood pressure (BP) check at home approximately 3 days post last dose of study drug. Subjects attended up to 14 full clinic visits, including a pre-Screening visit, a Screening/start of Placebo Run-in visit, a second visit during Placebo Run-in, a clinic visit to initiate the ABPM procedure, a Randomization visit, 8 weekly visits during double-blind treatment, and an end-of-study visit scheduled 4 weeks after the last study treatment for final efficacy and safety assessments.
An automated oscillometric sphygmomanometer device was used to measure the subjects' systolic and diastolic blood pressure in office after approximately 5 minutes of rest in the seated position.
The primary endpoint is the change in office-measured (mean of last 2 of 5 unattended measurements using an automated oscillometric sphygmomanometer device after approximately 5 minutes of rest in the seated position) systolic blood pressure (SBP) from baseline to the end of Study Week 8.
Secondary endpoints of this study were: • (a) Change in 24-hour ambulatory blood pressure monitoring (ABPM) parameters (systolic and diastolic) from baseline to the end of Study Week 7. • (b) Change in office-measured SBP from baseline to the end of Study Weeks 1, 2, 3, 4, 5, 6, and 7. • (c) Change in office-measured diastolic blood pressure (DBP) from baseline to the end of Study Weeks 1, 2, 3, 4, 5, 6, 7, and 8. • (d) Proportion of subjects who achieve office-measured BP of ≤130/80 mm Hg by the end of Study Week 8.

## CC(=O)N[C@H]1CC[C@H](NC(=O)CN2CCN(c3nncc(-c4ccc(C)cc4)n3)CC2)CC1 [Compound A HBr]
ACEi/ARB Yes
  Mean (SD) Change from Baseline at Week 8 in Automated Office-Measured Systolic Blood Pressure: −15.75 (17.46) mmHg
ACEi/ARBs No
  Mean (SD) Automated Office-Measured Diastolic Blood Pressure at Wk 8: 78.75 (13.72) mmHg
  Mean (SD) Change from Baseline at Week 8 in Automated Office-Measured Diastolic Blood Pressure: −4.44 (10.67) mmHg
ACEi/ARBs Yes
  Mean (SD) Automated Office-Measured Diastolic Blood Pressure at Wk 8: 76.05 (8.09) mmHg
  Mean (SD) Change from Baseline at Week 8 in Automated Office-Measured Diastolic Blood Pressure: −9.50 (8.30) mmHg
AHTs 2
  Mean (SD) Automated Office-Measured Diastolic Blood Pressure at Wk 8: 76.40 (10.12) mmHg
  Mean (SD) Automated Office-Measured Systolic Blood Pressure at Wk 8: 129.60 (13.98) mmHg
  Mean (SD) Change from Baseline at Week 8 in Automated Office-Measured Diastolic Blood Pressure: −7.03 (9.50) mmHg
  Mean (SD) Change from Baseline at Week 8 in Automated Office-Measured Systolic Blood Pressure: −10.28 (15.34) mmHg
AHTs ≥3
  Mean (SD) Automated Office-Measured Diastolic Blood Pressure at Wk 8: 77.88 (9.58) mmHg
  Mean (SD) Automated Office-Measured Systolic Blood Pressure at Wk 8: 126.25 (13.56) mmHg
  Mean (SD) Change from Baseline at Week 8 in Automated Office-Measured Diastolic Blood Pressure: −10.63 (8.12) mmHg
  Mean (SD) Change from Baseline at Week 8 in Automated Office-Measured Systolic Blood Pressure: −20.44 (20.36) mmHg
Age 65-79 yr
  Mean (SD) Automated Office-Measured Diastolic Blood Pressure at Wk 8: 72.54 (8.04) mmHg
  Mean (SD) Automated Office-Measured Systolic Blood Pressure at Wk 8: 127.92 (13.82) mmHg
  Mean (SD) Change from Baseline at Week 8 in Automated Office-Measured Diastolic Blood Pressure: −8.88 (9.23) mmHg
  Mean (SD) Change from Baseline at Week 8 in Automated Office-Measured Systolic Blood Pressure: −15.15 (18.27) mmHg
Age <65 yr
  Mean (SD) Automated Office-Measured Diastolic Blood Pressure at Wk 8: 80.53 (9.93) mmHg
  Mean (SD) Automated Office-Measured Systolic Blood Pressure at Wk 8: 129.27 (14.04) mmHg
  Mean (SD) Change from Baseline at Week 8 in Automated Office-Measured Diastolic Blood Pressure: −7.33 (9.30) mmHg
  Mean (SD) Change from Baseline at Week 8 in Automated Office-Measured Systolic Blood Pressure: −11.47 (16.60) mmHg
BMI 25−30 kg/m^2
  Mean (SD) Automated Office-Measured Diastolic Blood Pressure at Wk 8: 80.27 (6.29) mmHg
  Mean (SD) Change from Baseline at Week 8 in Automated Office-Measured Diastolic Blood Pressure: −4.50 (8.75) mmHg
BMI <25 kg/m^2
  Mean (SD) Automated Office-Measured Diastolic Blood Pressure at Wk 8: 61.00 (NE) mmHg
  Mean (SD) Change from Baseline at Week 8 in Automated Office-Measured Diastolic Blood Pressure: −24.50 (NE) mmHg
BMI >30 kg/m^2
  Mean (SD) Automated Office-Measured Diastolic Blood Pressure at Wk 8: 76.07 (11.02) mmHg
  Mean (SD) Change from Baseline at Week 8 in Automated Office-Measured Diastolic Blood Pressure: −9.67 (8.59) mmHg
BMI at baseline 25-30 kg/m^2
  Mean (SD) Automated Office-Measured Systolic Blood Pressure at Wk 8: 136.64 (14.70) mmHg
  Mean (SD) Change from Baseline at Week 8 in Automated Office-Measured Systolic Blood Pressure: −2.45 (15.21) mmHg
BMI at baseline <25 kg/m^2
  Mean (SD) Automated Office-Measured Systolic Blood Pressure at Wk 8: 118.00 (NE) mmHg
  Mean (SD) Change from Baseline at Week 8 in Automated Office-Measured Systolic Blood Pressure: −38.00 (NE) mmHg
BMI at baseline >30 kg/m^2
  Mean (SD) Automated Office-Measured Systolic Blood Pressure at Wk 8: 124.13 (10.98) mmHg
  Mean (SD) Change from Baseline at Week 8 in Automated Office-Measured Systolic Blood Pressure: −19.27 (15.13) mmHg
Race Black or AA
  Mean (SD) Automated Office-Measured Diastolic Blood Pressure at Wk 8: 83.25 (8.88) mmHg
  Mean (SD) Automated Office-Measured Systolic Blood Pressure at Wk 8: 130.38 (14.12) mmHg
  Mean (SD) Change from Baseline at Week 8 in Automated Office-Measured Diastolic Blood Pressure: −4.88 (8.84) mmHg
  Mean (SD) Change from Baseline at Week 8 in Automated Office-Measured Systolic Blood Pressure: −12.31 (18.13) mmHg
Race Other
  Mean (SD) Automated Office-Measured Diastolic Blood Pressure at Wk 8: 74.25 (9.14) mmHg
  Mean (SD) Automated Office-Measured Systolic Blood Pressure at Wk 8: 127.95 (13.83) mmHg
  Mean (SD) Change from Baseline at Week 8 in Automated Office-Measured Diastolic Blood Pressure: −9.33 (9.15) mmHg
  Mean (SD) Change from Baseline at Week 8 in Automated Office-Measured Systolic Blood Pressure: −13.53 (17.25) mmHg
Seated SBP Tertile High
  Mean (SD) Automated Office-Measured Diastolic Blood Pressure at Wk 8: 73.25 (8.33) mmHg
  Mean (SD) Change from Baseline at Week 8 in Automated Office-Measured Diastolic Blood Pressure: −13.94 (7.82) mmHg
Seated SBP Tertile Low
  Mean (SD) Automated Office-Measured Diastolic Blood Pressure at Wk 8: 81.08 (9.65) mmHg
  Mean (SD) Change from Baseline at Week 8 in Automated Office-Measured Diastolic Blood Pressure: 2.42 (8.22) mmHg
Seated SBP Tertile Middle
  Mean (SD) Automated Office-Measured Diastolic Blood Pressure at Wk 8: 74.00 (10.06) mmHg
